From patent US9156858B2, “Boronic acid derivatives and therapeutic uses thereof” (priority 2012, dated 2015)
Where two headings read alike, the source gives them in different places.

Legend:
ec308 (SHV-5) [1] = experiment: Aztreonam MIC of test strain; type: cell-based; conditions: read-out: Aztreonam MIC
ECL1002 (class C) [2] = experiment: Aztreonam MIC of test strain; type: cell-based; conditions: read-out: Aztreonam MIC
ec308 (SHV-5) [3] = experiment: Tigemonam potentiation (MPC@4); type: cell-based; conditions: BLI concentration inhibiting growth with 4 μg/mL tigemonam; class A
ECL1002 (class C) [4] = experiment: Aztreonam potentiation (MPC@4); type: cell-based; conditions: BLI concentration inhibiting growth with 4 μg/mL aztreonam
ec302 (TEM-10) [5] = experiment: Tigemonam potentiation (MPC@4); type: cell-based; conditions: BLI concentration inhibiting growth with 4 μg/mL tigemonam; class A
KP1009 (CTX-M-15) [6] = experiment: Tigemonam potentiation (MPC@4); type: cell-based; conditions: BLI concentration inhibiting growth with 4 μg/mL tigemonam; class A
EC1010 (CMY-6) [7] = experiment: Aztreonam potentiation (MPC@4); type: cell-based; conditions: BLI concentration inhibiting growth with 4 μg/mL aztreonam; class C
ec308 (SHV-5) [8] = experiment: Aztreonam potentiation (MPC@4); type: cell-based; conditions: BLI concentration inhibiting growth with 4 μg/mL aztreonam; class A
KP1005 (CTX-M-14) [9] = experiment: Aztreonam potentiation (MPC@4); type: cell-based; conditions: BLI concentration inhibiting growth with 4 μg/mL aztreonam; class A
CTX-M-14 = CTX-M-14 (Escherichia coli, UniProt Q9L5C7); experiment: Inhibition of nitrocefin cleavage by purified enzyme; type: biochemical; conditions: nitrocefin reporter substrate, 10 min preincubation, read-out: Ki (CTX-M-14, NCF)
CTX-M-14, sequence (Q9L5C7 entry or part of it): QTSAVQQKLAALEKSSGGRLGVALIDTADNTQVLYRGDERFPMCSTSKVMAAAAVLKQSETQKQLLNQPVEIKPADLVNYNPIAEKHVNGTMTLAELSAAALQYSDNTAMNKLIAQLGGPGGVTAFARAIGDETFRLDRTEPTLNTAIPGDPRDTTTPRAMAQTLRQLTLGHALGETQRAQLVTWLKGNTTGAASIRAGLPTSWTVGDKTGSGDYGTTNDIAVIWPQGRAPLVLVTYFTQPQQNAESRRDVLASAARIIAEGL
Experimental: (§1) Ki values of inhibition of purified class A, C and D enzymes were determined spectrophotometrically using nitrocefin as reporter substratre. Purified enzymes were mixed with various concentrations of inhibitors in reaction buffer and incubated for 10 min at room temperature. Nitrocefin was added and substrate cleavage profiles were recorded at 490 nm every 10 sec for 10 min.

OXA-48 = OXA-48 (Klebsiella pneumoniae, UniProt Q6XEC0); experiment: as above; type: biochemical
OXA-48, sequence (Q6XEC0 23-265 limits assumed): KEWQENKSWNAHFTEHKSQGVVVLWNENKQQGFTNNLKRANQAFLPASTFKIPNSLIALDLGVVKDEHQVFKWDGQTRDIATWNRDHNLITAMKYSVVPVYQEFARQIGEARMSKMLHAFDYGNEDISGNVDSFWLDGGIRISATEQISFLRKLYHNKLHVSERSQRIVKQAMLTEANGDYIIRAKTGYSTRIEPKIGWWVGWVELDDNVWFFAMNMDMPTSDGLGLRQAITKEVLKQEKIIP
Experimental: as §1

KPC-2 = KPC-2 (Klebsiella pneumoniae, UniProt Q9F663); experiment: as above; type: biochemical
KPC-2, sequence (Q9F663 25-293 limits assumed): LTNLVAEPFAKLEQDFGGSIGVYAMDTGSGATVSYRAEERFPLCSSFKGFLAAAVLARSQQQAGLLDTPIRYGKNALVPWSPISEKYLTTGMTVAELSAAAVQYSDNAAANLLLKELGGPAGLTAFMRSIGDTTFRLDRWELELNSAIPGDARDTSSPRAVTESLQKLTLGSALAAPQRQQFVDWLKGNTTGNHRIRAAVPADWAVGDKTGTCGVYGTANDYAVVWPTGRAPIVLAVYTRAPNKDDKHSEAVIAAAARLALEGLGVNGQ
Experimental: as §1

ECL1002 (class C) [10] = experiment: Tigemonam potentiation (MPC@4); type: cell-based; conditions: BLI concentration inhibiting growth with 4 μg/mL tigemonam
KP1010 (SHV-12) [11] = experiment: Tigemonam potentiation (MPC@4); type: cell-based; conditions: BLI concentration inhibiting growth with 4 μg/mL tigemonam; class A
ec302 (TEM-10) [12] = experiment: Aztreonam potentiation (MPC@4); type: cell-based; conditions: BLI concentration inhibiting growth with 4 μg/mL aztreonam; class A
CMY-2 = CMY-2 (Klebsiella pneumoniae, UniProt Q48434); experiment: biochemical
CMY-2, sequence (Q48434 21-381): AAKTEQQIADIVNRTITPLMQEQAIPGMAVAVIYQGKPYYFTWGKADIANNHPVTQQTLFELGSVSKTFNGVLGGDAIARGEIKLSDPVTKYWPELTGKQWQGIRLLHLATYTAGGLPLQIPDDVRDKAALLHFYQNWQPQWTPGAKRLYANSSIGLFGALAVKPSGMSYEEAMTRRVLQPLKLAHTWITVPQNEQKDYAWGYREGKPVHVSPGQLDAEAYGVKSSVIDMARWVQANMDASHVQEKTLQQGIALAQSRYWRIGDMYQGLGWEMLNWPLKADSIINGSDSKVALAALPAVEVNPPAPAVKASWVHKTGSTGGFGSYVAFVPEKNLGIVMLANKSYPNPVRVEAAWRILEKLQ

KP1007 (OXA-10) [13] = experiment: Tigemonam potentiation (MPC@4); type: cell-based; conditions: BLI concentration inhibiting growth with 4 μg/mL tigemonam; class D
KP1009 (CTX-M-15) [14] = experiment: Aztreonam potentiation (MPC@4); type: cell-based; conditions: BLI concentration inhibiting growth with 4 μg/mL aztreonam; class A
KP1005 (CTX-M-14) [15] = experiment: Tigemonam potentiation (MPC@4); type: cell-based; conditions: BLI concentration inhibiting growth with 4 μg/mL tigemonam; class A
KP1007 (OXA-10) [16] = experiment: Aztreonam potentiation (MPC@4); type: cell-based; conditions: BLI concentration inhibiting growth with 4 μg/mL aztreonam; class D
EC1010 (CMY-6) [17] = experiment: Tigemonam potentiation (MPC@4); type: cell-based; conditions: BLI concentration inhibiting growth with 4 μg/mL tigemonam; class C
KP1010 (SHV-12) [18] = experiment: Aztreonam potentiation (MPC@4); type: cell-based
KP1004 (KPC-2) = experiment: Aztreonam potentiation (MPC@4); type: cell-based; conditions: BLI concentration inhibiting growth with 4 μg/mL aztreonam; class A
KPX1001 (OXA-2) = experiment: Aztreonam potentiation (MPC@4); type: cell-based; conditions: BLI concentration inhibiting growth with 4 μg/mL aztreonam; class D
SHV-12 = SHV-12 (Klebsiella pneumoniae, UniProt P0AD64, E235K/G234S/L31Q); experiment: Inhibition of nitrocefin cleavage by purified enzyme; type: biochemical; conditions: nitrocefin reporter substrate, 10 min preincubation, read-out: Ki (SHV-12, NCF)
SHV-12, sequence (P0AD64 22-286 L31Q/G234S/E235K): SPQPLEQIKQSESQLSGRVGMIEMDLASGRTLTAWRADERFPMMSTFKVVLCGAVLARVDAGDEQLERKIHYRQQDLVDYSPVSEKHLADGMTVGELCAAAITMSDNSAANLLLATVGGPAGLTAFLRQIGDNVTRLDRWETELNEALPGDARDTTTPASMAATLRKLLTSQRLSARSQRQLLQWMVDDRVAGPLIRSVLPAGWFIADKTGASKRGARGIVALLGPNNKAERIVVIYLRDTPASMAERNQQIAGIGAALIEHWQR
Experimental: as §1

P99 /AmpC of ECL = P99 /AmpC of ECL (Enterobacter cloacae, UniProt P05364); experiment: biochemical; conditions: purified enzyme, nitrocefin reporter substrate, 10 min preincubation; read-out: Ki (P99 /AmpC of ECL, NCF)
P99 /AmpC of ECL, sequence (P05364 21-381): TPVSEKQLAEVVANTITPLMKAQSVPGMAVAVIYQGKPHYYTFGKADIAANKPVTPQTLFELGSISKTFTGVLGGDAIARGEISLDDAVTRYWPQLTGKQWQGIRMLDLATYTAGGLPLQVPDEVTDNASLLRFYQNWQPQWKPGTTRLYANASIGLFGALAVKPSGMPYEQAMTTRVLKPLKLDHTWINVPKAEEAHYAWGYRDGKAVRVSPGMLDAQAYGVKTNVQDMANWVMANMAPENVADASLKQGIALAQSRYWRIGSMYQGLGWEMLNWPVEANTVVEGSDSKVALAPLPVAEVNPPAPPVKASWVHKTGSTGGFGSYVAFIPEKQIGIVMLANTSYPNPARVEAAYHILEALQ

ec302 (TEM-10) [19] = experiment: Tigemonam MIC of test strain
EC1010 (CMY-6) [20] = experiment: Tigemonam MIC of test strain; conditions: strain EC1010, CMY-6, class C
KP1010 (SHV-12) [21] = experiment: Tigemonam MIC of test strain
ECL1002 (class C) [22] = conditions: strain ECL1002, class C
KP1005 (CTX-M-14) [23] = tested on: KP1005 (CTX-M-14)
KP1007 (OXA-10) [24] = experiment: Tigemonam MIC of test strain; conditions: strain KP1007, OXA-10, class D
[25] = purified enzyme, nitrocefin reporter substrate, 10 min preincubation, read-out: Ki (OXA-48, NCF)
[26] = purified enzyme, nitrocefin reporter substrate, 10 min preincubation, read-out: Ki (KPC-2, NCF)
[27] = purified enzyme, nitrocefin reporter substrate, 10 min preincubation, read-out: Ki (CMY-2, NCF)
[28] = BLI concentration inhibiting growth with 4 μg/mL aztreonam, class A

SMILES	MPC4 SHV-5 ec308 (ec308 (SHV-5) [3])	AZT MPC@4 ECL1002 (ECL1002 (class C) [4]) [µg/mL]	MPC4 TEM-10 ec302 (ec302 (TEM-10) [5]) [µg/mL]	MPC4 CTX-M-15 KP1009 (KP1009 (CTX-M-15) [6]) [µg/mL]	AZT MPC@4 CMY-6 EC1010 (EC1010 (CMY-6) [7]) [µg/mL]	AZT MPC4 SHV-5 ec308 (ec308 (SHV-5) [8]) [µg/mL]	AZT MPC4 CTX-M-14 KP1005 (KP1005 (CTX-M-14) [9]) [µg/mL]	Ki (CTX-M-14) [nM]	Ki (OXA-48; [25]) [nM]	Ki (KPC-2; [26]) [nM]	MPC4 ECL1002 (ECL1002 (class C) [10]) [µg/mL]	MPC4 SHV-12 KP1010 (KP1010 (SHV-12) [11])	AZT MPC4 TEM-10 ec302 (ec302 (TEM-10) [12]) [µg/mL]	MPC4 OXA-10, KP1007 (KP1007 (OXA-10) [13])	AZT MPC4 CTX-M-15 KP1009 (KP1009 (CTX-M-15) [14]) [µg/mL]	MPC4 CTX-M-14 KP1005 (KP1005 (CTX-M-14) [15]) [µg/mL]	AZT MPC@4 OXA-10, KP1007 (KP1007 (OXA-10) [16]) [µg/mL]	MPC4 CMY-6, EC1010 (EC1010 (CMY-6) [17]) [µg/mL]	AZT MPC4 KPC-2 KP1004 (KP1004 (KPC-2)) [µg/mL]	AZT MPC@4 OXA-2, KPX1001 (KPX1001 (OXA-2)) [µg/mL]	also measured
C[C@H]1[C@H](NC(=O)/C(=N\OC(C)(C)C(=O)O)c2csc(N)n2)C(=O)N1S(=O)(=O)O [Aztreonam]	–	–	–	–	–	–	–	–	–	–	–	–	–	–	–	–	–	–	–	–	MIC (ec308 (SHV-5) [1]): 64 µg/mL; MIC (ECL1002 (class C) [2]): 64 µg/mL
O=C(O)[C@H]1/C(=C/CO)O[C@@H]2CC(=O)N21 [Clavulanic Acid]	<=0.6 μg/mL	>40	2.5	1.25	40	0.08	1.25	27	18600	41200	>40	<=0.6 μg/mL	0.3	<=0.6 μg/mL	1.25	2.5	0.08	40	>40	5	Ki (CMY-2; [27]): > 100000 nM; AZT MPC4 SHV-12 KP1010 (KP1010 (SHV-12) [18]; [28]): 0.04 µg/mL
O=C(Cc1cccs1)N[C@@H](Cn1cc(C(=O)O)nn1)B(O)O [Compound 1, (R)-1-(2-borono-2-(2-(thiophen-2-yl)acetamido)ethyl)-1H-1,2,3-triazole-4-carboxylic acid]	2.5 µg/mL	20	>40	1.25	20	0.6	1.25	5	23300	39	5	0.3 µg/mL	>40	0.3 µg/mL	10	2.5	0.6	0.6	5	40	Ki (SHV-12): 5 nM; Ki (CMY-2; [27]): 60 nM; AZT MPC4 SHV-12 KP1010 (KP1010 (SHV-12) [18]; [28]): 0.3 µg/mL; Ki (P99 /AmpC of ECL): 80 nM
C[C@]1(Cn2ccnn2)[C@H](C(=O)O)N2C(=O)C[C@H]2S1(=O)=O [Tazobactam]	5 µg/mL	>40	5	10	20	10	10	–	–	–	10	1.25 µg/mL	5	5 µg/mL	20	10	5	2.5	>40	>40	Ki (OXA-48): 160 nM; Ki (KPC-2): 1600 nM; Ki (CMY-2): 710 nM; AZT MPC4 SHV-12 KP1010 (KP1010 (SHV-12) [18]): 1.25 µg/mL
CC1(C)[C@H](NC(=O)/C(=N\OCC(=O)O)c2csc(N)n2)C(=O)N1OS(=O)(=O)O [Tigemonam]	–	–	–	–	–	–	–	–	–	–	–	–	–	–	–	–	–	–	–	–	Tigemonam MIC (ec302 (TEM-10) [19]): >512 µg/mL; Tigemonam MIC (EC1010 (CMY-6) [20]): 16 µg/mL; Tigemonam MIC (KP1010 (SHV-12) [21]): 256 µg/mL; Tigemonam MIC (ECL1002 (class C) [22]): 32 µg/mL; Tigemonam MIC (KP1005 (CTX-M-14) [23]): 512 µg/mL; Tigemonam MIC (KP1007 (OXA-10) [24]): >64 µg/mL
